Usually vapor or sublimation pressure stands for the pressure of vapour in equilibrium with the condensed phase.

Each structure is given as a SMILES string. Where “and” joins values, the source holds several entries; their conditions need not be identical. Equal values may be shown once. Numbers after ± are expanded uncertainties.

The conditions of the data set: 313.15 K; Liquid; Closed cell (Static) method.
For the molecule `c1ccccc1` [benzene], the “vapor or sublimation pressure” value is 24.4 ± 0.094 kPa and 24.38 ± 0.094 kPa.
The same measure for `CC(C)OC(C)C` [diisopropyl ether]: 37.11 ± 0.14 kPa and 37.13 ± 0.14 kPa; for `CC(C)O` [propan-2-ol]: 13.9 ± 0.06 kPa and 13.89 ± 0.06 kPa.
